Source: US20070123551A1, “Use of metabotropic glutamarate receptor 5 (mglur5) antagonists for the treatment of gastrointestinal disorders” (priority 2003, published 2007)

Test system: WKY rats
Assay: in vivo gastric distension model (barostat, ramp and tonic distension) in conscious WKY rats
Design: species or system Wistar Kyoto rats
Description: An in vivo gastric distension model is used as a model for functional gastrointestinal disorders, in particular for functional dyspepsia (Bayati A, Astin M, Ekman C, Mattsson H. Wistar Kyoto rats have impaired gastric adaptive accommodation in response to gastric distension. Gastroenterology 2003; 124 (4, suppl 1): W1471 (abstract)).
The gastric distension model enables detailed analysis of the physico-mechanical properties of the stomach, e.g. basal gastric tone, threshold for accommodation, accommodation rate, accommodation volume, and maximal gastric volume. […] Furthermore, it has been shown that patients with Functional Dyspepsia as well as Wistar Kyoto (WKY) rats have an impaired gastric adaptive response and also a lower total gastric volume as compared to healthy subjects and Sprague Dawley (SD) rats, respectively. In addition, the method has shown to be reproducible and reliable. Moreover, the advantage of the presently used barostat technique compared to other barostat techniques normally used in experimental clinical studies is that it is possible to discriminate between if a compound exerts its effect directly on gastric smooth muscles or if the effect involves the vagal reflex mechanism.
The rats are equipped with fistulas chronically implanted into the stomach. During gastric barostat experiments, a small inflatable plastic bag with a spherical shape is inserted through fistula into the glandular part of the stomach (middle to distal part in the rat). The experiments are performed in conscious rats. For detailed analysis of the physico-mechanical properties of the stomach, a combination of ramp and tonic distension paradigm is used. Pressure and volume data collected during experiments are saved for and further analysis.
In order to determine an animal's maximum gastric accommodation capacity, a balloon is inserted into the stomach of the animal and a four phase protocol which includes a start phase, a ramp phase, a tonic phase and an end phase is performed. A barostat system maintains the pressure by pumping air into and out of the balloon. The pressure applied to the balloon and the corresponding changes to the volume of the balloon are monitored throughout, e.g., using any barostat system known in the art (e.g., see Toma et al, Neurogastroenterol. Mot., 8, 19-28, 1996).
During the start phase a minimum distension pressure, e.g., 1 mmHg, is applied to the balloon until base line values are obtained. This is followed by a Ramp Phase. During this phase the pressure applied to the balloon is increased linearly with a constant increase in pressure to a preset maximum value. This second phase is then followed by the Tonic Phase at which the preset maximum pressure is kept constant. Finally, the pressure is rapidly dropped to the starting minimum distension pressure and this period is known as the End Phase.
To determine if an agent, e.g., a compound is useful in the treatment of FD, the maximum gastric accommodation rate in the WKY rat following administration of the compound is calculated. A compound of interest will be a compound that alters the maximum gastric accommodation rate in the animal and this is calculated by determining a difference in the maximum gastric accommodation rate before and after administration of the compound.
The Wistar Kyoto rats (WKY; M&B Denmark) are starved about 6 or 18 hours before each experiment depending on if the experiments are performed in the morning or in the afternoon. […]

[1] = 10 μmol/kg intravenously 3-5 min before start of ramp phase, compared to the control situation, FIG. 1

For Cc1cccc(C#Cc2ccccc2)n1 [MPEP, 2-methyl-6-(phenylethynyl)-pyridine], the “gastric volume during the ramp phase” value [1] was “increase”, the “gastric volume during the tonic phase” value [1] was “increase” and the “accommodation rate (the slope of volume curve during the tonic phase)” value (10 μmol/kg intravenously, FIG. 1) was “increased”. For the same compound, the maximum gastric volume (10 μmol/kg intravenously, compared to the control situation, FIG. 1) was “increased” and the accommodation capacity (10 μmol/kg intravenously, conclusion) was “increases”.
